Laboratory results as given in patent publication US10562859B2, “Aryl sulfonamide compounds as carbonic anhydrase inhibitors and their therapeutic use” (SignalChem LifeSciences Corporation, priority 2015, dated 2020).

Experiments:
recombinant human CAXII = recombinant human CAXII (Homo sapiens, UniProt O43570); assay: Stopped-flow CA-catalyzed CO2 hydration assay, CAXII; type: biochemical; details: pH 7.4, inhibitor and enzyme pre-incubated 15 minutes at room temperature
Protocol: (§1) An Applied Photophysics stopped-flow instrument was used for assaying the CA-catalyzed CO2 hydration activity. […] The CO2 concentrations ranged from 1.7 to 17 mM for the determination of the kinetic parameters and inhibition constants. For each inhibitor, at least six traces of the initial 5-10% of the reaction were used for determining the initial velocity. The uncatalyzed rates were determined in the same manner and subtracted from the total observed rates. Stock solutions of inhibitor (10 mM) were prepared in distilled-deionized water, and dilutions up to 0.01 nM were done thereafter with distilled-deionized water. Inhibitor and enzyme solutions were pre-incubated together for 15 minutes at room temperature prior to assay in order to allow for the formation of the E-I complex. The inhibition constants were obtained by nonlinear least-squares methods using PRISM 3, whereas the kinetic parameters for the uninhibited enzymes were from Lineweaver-Burk plots, and represent the mean from at least three different determinations.

recombinant human CAIX = recombinant human CAIX (Homo sapiens, UniProt Q16790); assay: Stopped-flow CA-catalyzed CO2 hydration assay, CAIX; type: biochemical; details: pH 7.4, inhibitor and enzyme pre-incubated 15 minutes at room temperature
Protocol: as §1

Sequence of recombinant human CAXII (O43570 25-354): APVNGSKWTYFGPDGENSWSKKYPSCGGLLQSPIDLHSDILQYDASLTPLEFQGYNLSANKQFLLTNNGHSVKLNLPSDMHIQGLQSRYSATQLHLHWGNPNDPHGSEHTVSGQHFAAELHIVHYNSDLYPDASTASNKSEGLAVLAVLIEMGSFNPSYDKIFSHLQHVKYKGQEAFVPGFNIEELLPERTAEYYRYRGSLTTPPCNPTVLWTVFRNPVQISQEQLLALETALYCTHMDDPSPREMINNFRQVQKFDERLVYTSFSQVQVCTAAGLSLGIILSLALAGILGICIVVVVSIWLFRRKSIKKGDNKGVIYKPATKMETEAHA

Compound	Ki (nM) CAXII (recombinant human CAXII)	Ki (nM) CAIX (recombinant human CAIX)	Ki (recombinant human CAIX) [nM]	Ki (recombinant human CAXII) [nM]
NS(=O)(=O)c1ccc(N2CCN(c3cccc(F)c3)C2=O)cc1 [Example 1, 4-(3-(3-fluorophenyl)-2-oxoimidazolidin-1-yl)benzenesulfonamide]	++ (“++” represents the 100 nM<Ki<10 nM)	++ (“++” represents the 100 nM<Ki<10 nM)		
Cc1cc(C)cc(N2CCN(c3ccc(S(N)(=O)=O)cc3)C2=O)c1 [Example 2, 4-(3-(3,5-dimethylphenyl)-2-oxoimidazolidin-1-yl)benzenesulfonamide]	++ (“++” represents the 100 nM<Ki<10 nM)	++ (“++” represents the 100 nM<Ki<10 nM)		
COc1cc(N2CCN(c3ccc(S(N)(=O)=O)cc3)C2=O)cc(OC)c1OC [Example 3, 4-(2-oxo-3-(3,4,5-trimethoxyphenyl)imidazolidin-1-yl)benzenesulfonamide]	++ (“++” represents the 100 nM<Ki<10 nM)		< 10	
NS(=O)(=O)c1ccc(N2CCN(C3CCCC3)C2=O)cc1 [Example 4, 4-(3-cyclopentyl-2-oxoimidazolidin-1-yl)benzenesulfonamide]	++ (“++” represents the 100 nM<Ki<10 nM)	++ (“++” represents the 100 nM<Ki<10 nM)		
NS(=O)(=O)c1ccc(N2CCN(C3CCCCC3)C2=O)cc1 [Example 5, 4-(3-cyclohexyl-2-oxoimidazolidin-1-yl)benzenesulfonamide]	++ (“++” represents the 100 nM<Ki<10 nM)	++ (“++” represents the 100 nM<Ki<10 nM)		
NS(=O)(=O)c1ccc(N2CCN(c3ccc(Br)cc3F)C2=O)cc1 [Example 6, 4-(3-(4-bromo-2-fluorophenyl)-2-oxoimidazolidin-1-yl)benzenesulfonamide]	++ (“++” represents the 100 nM<Ki<10 nM)	++ (“++” represents the 100 nM<Ki<10 nM)		
NS(=O)(=O)c1ccc(N2CCN(c3ccc(Cl)cc3F)C2=O)cc1 [Example 7, 4-(3-(4-chloro-2-fluorophenyl)-2-oxoimidazolidin-1-yl)benzenesulfonamide]	++ (“++” represents the 100 nM<Ki<10 nM)		< 10	
NS(=O)(=O)c1ccc(N2CCN(c3ccc(C(F)(F)F)cc3)C2=O)cc1 [Example 8, 4-(2-oxo-3-(4-(trifluoromethyl)phenyl)imidazolidin-1-yl)benzenesulfonamide]			< 10	< 10
NS(=O)(=O)c1ccc(N2CCN(Cc3ccc(F)cc3)C2=O)cc1 [Example 9, 4-(3-(4-fluorobenzyl)-2-oxoimidazolidin-1-yl)benzenesulfonamide]	++ (“++” represents the 100 nM<Ki<10 nM)	++ (“++” represents the 100 nM<Ki<10 nM)		
NS(=O)(=O)c1ccc(N2CCN(CC3CC3)C2=O)cc1 [Example 10, 4-(3-(cyclopropylmethyl)-2-oxoimidazolidin-1-yl)benzenesulfonamide]			< 10	< 10
CC(C)c1ccccc1N1CCN(c2ccc(S(N)(=O)=O)cc2)C1=O [Example 11, 4-(3-(2-isopropylphenyl)-2-oxoimidazolidin-1-yl)benzenesulfonamide]			< 10	< 10
NS(=O)(=O)c1ccc(N2CCN(c3cc(C(F)(F)F)ccc3Cl)C2=O)cc1 [Example 12, 4-(3-(2-chloro-5-(trifluoromethyl)phenyl)-2-oxoimidazolidin-1-yl)benzenesulfonamide]			< 10	< 10
NS(=O)(=O)c1ccc(N2CCN(c3cc(C(F)(F)F)ccc3F)C2=O)cc1 [Example 13, 4-(3-(2-fluoro-5-(trifluoromethyl)phenyl)-2-oxoimidazolidin-1-yl)benzenesulfonamide]			< 10	< 10
COCCOc1ccc(N2CCN(c3ccc(S(N)(=O)=O)cc3)C2=O)cc1 [Example 14, 4-(3-(4-(2-methoxyethoxy)phenyl)-2-oxoimidazolidin-1-yl)benzenesulfonamide]			< 10	< 10
CCCCOc1ccc(N2CCN(c3ccc(S(N)(=O)=O)cc3)C2=O)cc1 [Example 15, 4-(3-(4-butoxyphenyl)-2-oxoimidazolidin-1-yl)benzenesulfonamide]	++ (“++” represents the 100 nM<Ki<10 nM)		< 10	
N#Cc1ccc(N2CCN(c3ccc(S(N)(=O)=O)cc3)C2=O)cc1 [Example 16, 4-(3-(4-cyanophenyl)-2-oxoimidazolidin-1-yl)benzenesulfonamide]			< 10	< 10
CC(=O)c1ccc(N2CCN(c3ccc(S(N)(=O)=O)cc3)C2=O)cc1 [Example 17, 4-(3-(4-acetylphenyl)-2-oxoimidazolidin-1-yl)benzenesulfonamide]			< 10	< 10
NS(=O)(=O)c1ccc(N2CCN(c3ccc(F)cc3)C2=O)cc1 [Example 21, 4-(3-(4-fluorophenyl)-2-oxoimidazolidin-1-yl)benzenesulfonamide]	++ (“++” represents the 100 nM<Ki<10 nM)		< 10	
NS(=O)(=O)c1ccc(N2CCN(c3ccc(F)c(Cl)c3)C2=O)cc1 [Example 22, 4-(3-(3-chloro-4-fluorophenyl)-2-oxoimidazolidin-1-yl)benzenesulfonamide]	++ (“++” represents the 100 nM<Ki<10 nM)		< 10	
NS(=O)(=O)c1ccc(N2CCN(c3cc(F)cc(F)c3)C2=O)cc1 [Example 23, 4-(3-(3,5-difluorophenyl)-2-oxoimidazolidin-1-yl)benzenesulfonamide]			< 10	< 10
NS(=O)(=O)c1ccc(N2CCN(c3ccc(F)c(F)c3)C2=O)cc1 [Example 24, 4-(3-(3,4-difluorophenyl)-2-oxoimidazolidin-1-yl)benzenesulfonamide]	++ (“++” represents the 100 nM<Ki<10 nM)		< 10	
COc1ccc(N2CCN(c3ccc(S(N)(=O)=O)cc3)C2=O)c(F)c1 [Example 25, 4-(3-(2-fluoro-4-methoxyphenyl)-2-oxoimidazolidin-1-yl)benzenesulfonamide]	++ (“++” represents the 100 nM<Ki<10 nM)		< 10	
CCCCOc1ccc(N2CCN(c3ccc(S(N)(=O)=O)cc3)C2=O)c(F)c1 [Example 26, 4-(3-(4-butoxy-2-fluorophenyl)-2-oxoimidazolidin-1-yl)benzenesulfonamide]	++ (“++” represents the 100 nM<Ki<10 nM)		< 10	
NS(=O)(=O)c1ccc(N2CCN(c3ccc(Cl)c(F)c3)C2=O)cc1 [Example 27, 4-(3-(4-chloro-3-fluorophenyl)-2-oxoimidazolidin-1-yl)benzenesulfonamide]	++ (“++” represents the 100 nM<Ki<10 nM)		< 10	
NS(=O)(=O)c1ccc(N2CCN(c3ccc(F)cn3)C2=O)cc1 [Example 28.1, 4-(3-(5-fluoropyridin-2-yl)-2-oxoimidazolidin-1-yl)benzenesulfonamide]			> 100000	> 100000
CN1CCN(c2ccc(N3CCN(c4ccc(S(N)(=O)=O)cc4)C3=O)c(F)c2)CC1 [Example 28.2, 4-(3-(2-fluoro-4-(4-methylpiperazin-1-yl)phenyl)-2-oxoimidazolidin-1-yl)benzenesulfonamide]			> 100000	< 10
NS(=O)(=O)c1ccc(N2CCN(c3ccc(N4CCOCC4)cc3F)C2=O)cc1 [Example 28.3, 4-(3-(2-fluoro-4-morpholinophenyl)-2-oxoimidazolidin-1-yl)benzenesulfonamide]			< 10	< 10
